Broadly, the Ki is a dissociation constant, usually derived from enzyme kinetics or from competition with a known ligand. As a reminder, the MIC is the lowest concentration that inhibits growth of the organism. One may read the GI50 as the concentration that inhibits growth by half. The IC50 is the midpoint of a concentration-inhibition curve. Low readings indicate greater potency, high ones weaker potency.

The record followed here is ChEMBL document CHEMBL5230082, “Recent advances in steroid amino acid conjugates: Old scaffolds with new dimensions” (Eur J Med Chem, 2020).

Test [1] has as its target T1, Ileal sodium/bile acid cotransporter (Homo sapiens, UniProt Q12908).
T1 sequence (Q12908 whole entry): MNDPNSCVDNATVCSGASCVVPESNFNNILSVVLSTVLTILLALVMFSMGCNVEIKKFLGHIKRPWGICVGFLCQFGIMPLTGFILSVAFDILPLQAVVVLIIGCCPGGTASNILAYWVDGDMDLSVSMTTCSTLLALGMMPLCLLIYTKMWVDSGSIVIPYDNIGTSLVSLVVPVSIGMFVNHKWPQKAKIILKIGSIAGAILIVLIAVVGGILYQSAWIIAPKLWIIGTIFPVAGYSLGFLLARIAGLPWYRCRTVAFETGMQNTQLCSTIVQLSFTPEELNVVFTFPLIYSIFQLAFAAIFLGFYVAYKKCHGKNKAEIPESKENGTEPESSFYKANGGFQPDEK
In words: Binding affinity to ASBT (unknown origin) assessed as inhibition constant.

The target of test [2] is T2, Hepatic sodium/bile acid cotransporter (Homo sapiens, UniProt Q14973).
T2 sequence (Q14973 whole entry): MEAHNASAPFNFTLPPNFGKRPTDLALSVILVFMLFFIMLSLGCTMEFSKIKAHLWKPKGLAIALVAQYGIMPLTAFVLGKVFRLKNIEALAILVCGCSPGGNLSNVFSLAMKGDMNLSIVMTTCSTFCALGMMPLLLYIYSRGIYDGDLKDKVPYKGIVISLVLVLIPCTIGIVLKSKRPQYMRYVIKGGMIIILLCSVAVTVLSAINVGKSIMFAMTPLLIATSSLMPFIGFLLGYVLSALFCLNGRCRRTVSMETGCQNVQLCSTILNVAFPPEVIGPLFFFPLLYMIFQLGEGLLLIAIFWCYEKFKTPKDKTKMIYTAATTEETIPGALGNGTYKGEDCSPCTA
In words: Binding affinity to NTCP (unknown origin) assessed as inhibition constant.

Another test relates to Escherichia coli. The test is described as follows: Antibacterial activity against Escherichia coli. The test is classed as functional.
A short description of test [3]: Anticancer activity against human U-87 MG cells assessed as growth inhibition. The format is functional, U-87MG ATCC.
The next test has as its system MCF7. In words: Antiproliferative activity against human MCF7 by MTT assay. The test is classed as functional, cell-based. Background: Tetrazolium assays rely on reduction of a dye to a coloured formazan, in cell work by metabolically active cells.
For a further test, the system named is MDA-MB-231. In words: Anticancer activity against human MDA-MB-231 cells assessed as growth inhibition. The format is functional.
The next test relates to Klebsiella pneumoniae. The test is described as follows: Antibacterial activity against Klebsiella pneumoniae. The format is functional.
In a further test the test system is Acinetobacter baumannii. The test is described as follows: Antibacterial activity against Acinetobacter baumannii. The format is functional.
Test [4] can be described thus: Inhibition of Sialyltransferase (unknown origin). The arrangement: species or system Homo sapiens.
In the next test the target is Integrin alpha-M/beta-2 (Homo sapiens, UniProt P05107+P11215). The test is described as follows: Antagonist activity at integrin CD11B/CD18 (unknown origin). The format is protein-complex assay.

≈ marks a conversion by molar mass, not a printed value.

Integrin alpha-M/beta-2, sequence (P05107 23-769 limits assumed, other chains not shown): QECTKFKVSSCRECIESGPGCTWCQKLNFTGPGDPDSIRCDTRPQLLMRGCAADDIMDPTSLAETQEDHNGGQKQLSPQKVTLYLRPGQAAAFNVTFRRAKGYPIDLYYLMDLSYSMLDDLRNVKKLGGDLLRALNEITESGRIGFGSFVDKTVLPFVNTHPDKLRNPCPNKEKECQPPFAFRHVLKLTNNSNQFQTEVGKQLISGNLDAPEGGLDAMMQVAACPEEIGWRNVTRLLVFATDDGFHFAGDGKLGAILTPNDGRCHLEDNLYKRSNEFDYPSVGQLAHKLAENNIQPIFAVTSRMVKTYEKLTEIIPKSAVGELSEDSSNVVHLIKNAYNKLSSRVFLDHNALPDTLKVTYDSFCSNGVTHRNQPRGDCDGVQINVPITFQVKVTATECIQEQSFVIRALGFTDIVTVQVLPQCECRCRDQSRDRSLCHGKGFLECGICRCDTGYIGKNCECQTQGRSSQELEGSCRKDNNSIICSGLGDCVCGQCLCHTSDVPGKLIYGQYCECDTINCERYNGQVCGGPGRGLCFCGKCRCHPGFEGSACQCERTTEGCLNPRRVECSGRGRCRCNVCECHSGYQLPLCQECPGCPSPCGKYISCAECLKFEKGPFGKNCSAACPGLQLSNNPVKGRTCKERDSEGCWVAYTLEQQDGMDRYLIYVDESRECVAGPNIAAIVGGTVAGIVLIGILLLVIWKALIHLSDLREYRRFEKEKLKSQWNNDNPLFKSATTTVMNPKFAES

For `C[C@H](CCC(=O)NCC(=O)O)[C@H]1CC[C@H]2[C@@H]3C(=O)C[C@@H]4C[C@H](O)CC[C@]4(C)[C@H]3CC[C@]12C`, the inhibition constant Ki in test [1] was found to be 20.4 µM; in test [2], 4.21 µM. In the case of `C[C@H](CCC(=O)NCC(=O)O)[C@H]1CC[C@H]2[C@@H]3[C@@H](OC(=O)c4cccnc4)C[C@@H]4C[C@H](O)CC[C@]4(C)[C@H]3CC[C@]12C`, the Ki in [1] was 15.2 µM; in test [2] it was 11.8 µM. With `CCCCCCCCNCCC[C@@H](C)[C@H]1CC[C@H]2[C@@H]3[C@H](OCCCNC(=N)N)C[C@@H]4C[C@H](OCCCNC(=N)N)CC[C@]4(C)[C@H]3C[C@H](OCCCNC(=N)N)[C@]12C`, in the test on Escherichia coli, it took 1 µg/mL to inhibit growth (MIC). As to `CCCCCCCCNCCC[C@@H](C)[C@H]1CC[C@H]2[C@@H]3[C@H](OCCCN)C[C@@H]4C[C@H](OCCCN)CC[C@]4(C)[C@H]3C[C@H](OCCCN)[C@]12C`, in the test with Escherichia coli, the MIC was determined as 1.5 µg/mL. On to `C[C@H](CCC(=O)NCC(=O)O)[C@H]1CC[C@H]2[C@@H]3[C@@H](OC(=O)c4ccc(F)cc4)C[C@@H]4C[C@H](O)CC[C@]4(C)[C@H]3CC[C@]12C`, for which the Ki amounted to 8.39 µM in test [1] and 2.55 µM in [2]. `CC(C)[C@H](NC(=O)CC[C@@H](C)[C@H]1CC[C@H]2[C@@H]3[C@H](O)C[C@@H]4C[C@H](O)CC[C@]4(C)[C@H]3C[C@H](O)[C@]12C)C(=O)Nc1ccncc1`: in test [3], the GI50 came to 2.46 µM. Take `C[C@H](CCC(=O)NCC(=O)O)[C@H]1CC[C@H]2[C@@H]3[C@H](OC(=O)c4cccnc4)C[C@@H]4C[C@H](O)CC[C@]4(C)[C@H]3CC[C@]12C`: the Ki was found to be 15.6 µM in [1] and 9.29 µM in test [2]. With `C[C@H](CCC(=O)N[C@@H](CCCCNC(=O)CC[C@H](C)[C@H]1CC[C@H]2[C@@H]3[C@H](O)C[C@@H]4C[C@H](O)CC[C@]4(C)[C@H]3C[C@H](O)[C@]12C)C(=O)O)[C@H]1CC[C@H]2[C@@H]3[C@H](O)C[C@@H]4C[C@H](O)CC[C@]4(C)[C@H]3C[C@H](O)[C@]12C`, the IC50 in the test on MCF7 was more than 50 µM.

On to `CC[C@H](C)[C@H](NC(=O)CC[C@@H](C)[C@H]1CC[C@H]2[C@@H]3[C@H](O)C[C@@H]4C[C@H](O)CC[C@]4(C)[C@H]3C[C@H](O)[C@]12C)C(=O)Nc1ccccc1`, for which the GI50 in the test with MDA-MB-231 was 1.35 µM. For the compound `CC(C)[C@H](N)C(=O)NCC(=O)OO[C@H]1C[C@H]2[C@@H]([C@H](OC(=O)CNC(=O)[C@@H](N)C(C)C)C[C@@H]3C[C@H](OC(=O)CNC(=O)[C@@H](N)C(C)C)CC[C@@]32C)[C@@H]2CC[C@H]([C@H](C)CCC(=O)OCc3ccccc3)[C@@]12C`, the MIC with Klebsiella pneumoniae is 16 µM (≈ 15.7 µg/mL); in the test on Acinetobacter baumannii, 16 µM (≈ 15.7 µg/mL); against Escherichia coli it was 8 µM. In the case of `C[C@H](CCC(=O)N[C@@H](CCCCNC(=O)CC[C@H](C)[C@H]1CC[C@H]2[C@@H]3CC[C@@H]4C[C@H](O)CC[C@]4(C)[C@H]3C[C@H](O)[C@]12C)C(=O)O)[C@H]1CC[C@H]2[C@@H]3CC[C@@H]4C[C@H](O)CC[C@]4(C)[C@H]3C[C@H](O)[C@]12C`, the IC50 in the test with MCF7 was more than 50 µM.

Regarding `CC[C@H](C)[C@H](NC(=O)CC[C@@H](C)[C@H]1CC[C@H]2[C@@H]3[C@H](O)C[C@@H]4C[C@H](O)CC[C@]4(C)[C@H]3C[C@H](O)[C@]12C)C(=O)Nc1nc2ccccc2s1`, the GI50 in the test with MDA-MB-231 was 1.41 µM. In the test on MCF7, `COC(=O)[C@H](CCCCNC(=O)CC[C@H](C)[C@H]1CC[C@H]2[C@@H]3[C@H](O)C[C@@H]4C[C@H](O)CC[C@]4(C)[C@H]3C[C@H](O)[C@]12C)NC(=O)CC[C@@H](C)[C@H]1CC[C@H]2[C@@H]3[C@H](O)C[C@@H]4C[C@H](O)CC[C@]4(C)[C@H]3C[C@H](O)[C@]12C` registered an IC50 of less than 10 µM.

With `C[C@H](CCC(=O)O)[C@H]1CC[C@H]2[C@@H]3CC[C@@H]4C[C@H](OC(=O)[C@H](N)CC(=O)O)CC[C@]4(C)[C@H]3CC[C@]12C`, it took 6 µM to reach half-maximal inhibition in test [4] (IC50). On to `CO[C@H]1CC[C@@]2(C)[C@@H](CC[C@H]3[C@@H]2CC[C@@]2(C)[C@H]3C[C@H](C(=O)N[C@@H](CCCNC(=N)N)C(=O)NCC(=O)N[C@@H](CC(=O)O)C(N)=O)O[C@]23CCCO3)C1`, for which 6.5 µM corresponded to half-maximal inhibition against Integrin alpha-M/beta-2 (IC50).

On to `CO[C@H]1CC[C@@]2(C)[C@@H](CC[C@H]3[C@@H]2CC[C@@]2(C)[C@H]3C[C@H](C(=O)N[C@@H](CCCNC(=N)N)C(=O)NCC(=O)N[C@@H](CC(=O)O)C(=O)NCc3ccccc3)O[C@]23CCCO3)C1`, for which 10.9 µM corresponded to half-maximal inhibition against Integrin alpha-M/beta-2 (IC50). With `Cc1ccc(NC(=O)[C@H](C)NC(=O)CC[C@@H](C)[C@H]2CC[C@H]3[C@@H]4[C@H](O)C[C@@H]5C[C@H](O)CC[C@]5(C)[C@H]4C[C@H](O)[C@]23C)cc1`, the GI50 in test [3] was determined as 1.62 µM; in the test with MDA-MB-231 it was 4.52 µM.

In [4], `CCCP(=O)(OCC)C(Cc1cn(CCC[C@@H](C)[C@H]2CC[C@H]3[C@@H]4CC[C@@H]5C[C@H](O)CC[C@]5(C)[C@H]4CC[C@]23C)nn1)C(=O)O` (some centres undefined) yielded an IC50 of 7 µM. Consider POLYMYXIN B, for which the MIC against Escherichia coli stood at 1.8 µg/mL. With `COc1cccc2c1C(=O)c1c(O)c3c(c(O)c1C2=O)C[C@@](O)(C(=O)CO)C[C@@H]3O[C@H]1C[C@H](N)[C@H](O)[C@H](C)O1` [DOXORUBICIN], the GI50 came to 2.6 µM in test [3] and 1 µM in the test on MDA-MB-231. Turning to `Cc1c(NC(=O)[C@H](C)NC(=O)CC[C@@H](C)[C@H]2CC[C@H]3[C@@H]4[C@H](O)C[C@@H]5C[C@H](O)CC[C@]5(C)[C@H]4C[C@H](O)[C@]23C)c(=O)n(-c2ccccc2)n1C`, the GI50 in test [3] amounted to 2.49 µM. In the case of `C[C@H](CCCn1cc(CCCC(=O)O)nn1)[C@H]1CC[C@H]2[C@@H]3CC[C@@H]4C[C@H](O)CC[C@]4(C)[C@H]3CC[C@]12C`, the IC50 in [4] is 5 µM. For `C[C@H](CCC(=O)NCC(=O)O)[C@H]1CC[C@H]2[C@@H]3[C@H](O)C[C@@H]4C[C@H](OC(=O)c5cccnc5)CC[C@]4(C)[C@H]3CC[C@]12C`, the results for the Ki in [1] and in [2] were 6.45 µM and 5.38 µM, respectively. `COC(=O)[C@H](CCCCNC(=O)CC[C@H](C)[C@H]1CC[C@H]2[C@@H]3CC[C@@H]4C[C@H](O)CC[C@]4(C)[C@H]3C[C@H](O)[C@]12C)NC(=O)CC[C@@H](C)[C@H]1CC[C@H]2[C@@H]3CC[C@@H]4C[C@H](O)CC[C@]4(C)[C@H]3C[C@H](O)[C@]12C` came in with an IC50 in the test with MCF7 of less than 10 µM. In the test with MCF7, `COC(=O)[C@H](CCCCNC(=O)CC[C@H](C)[C@H]1CC[C@H]2[C@@H]3CC[C@@H]4C[C@H](OC(C)=O)CC[C@]4(C)[C@H]3C[C@H](OC(C)=O)[C@]12C)NC(=O)CC[C@@H](C)[C@H]1CC[C@H]2[C@@H]3CC[C@@H]4C[C@H](OC(C)=O)CC[C@]4(C)[C@H]3C[C@H](OC(C)=O)[C@]12C` gave an IC50 of more than 100 µM.
